Measured values published in ChEMBL document CHEMBL1201862, “PubChem BioAssay data set” (2004).
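Cultured in 96-well plates, cells were exposed to test compound for 48 hours across five concentrations. Here, GI50 denotes the concentration required for 50% inhibition of growth.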 Active and inactive are the calls of the source. No stated cut-off is given here; in the data, active = GI50 up to about 1.1 µM and inactive = higher.

Key:
Assay in all cases: DTP human tumour cell line panel, 48 h
786-0 = system: 786-0
A549 = system: A549
ACHN = system: ACHN
BT-549 = system: BT-549
CAKI-1 = system: CAKI-1
CCRF-CEM = system: CCRF-CEM
COLO 205 = system: COLO 205
DU-145 = system: DU-145
EKVX = system: EKVX
HCC 2998 = system: HCC 2998
HCT-116 = system: HCT-116
HCT-15 = system: HCT-15
HL-60 = system: HL-60
HOP-62 = system: HOP-62
HOP-92 = system: HOP-92
HT-29 = system: HT-29
Hs-578T = system: Hs-578T
IGROV-1 = system: IGROV-1
KM12 = system: KM12
LOX IMVI = system: LOX IMVI
M14 = system: M14
MCF7 = system: MCF7
MDA-MB-231 = system: MDA-MB-231
MDA-MB-435 = system: MDA-MB-435
MDA-N = system: MDA-N
MOLT-4 = system: MOLT-4
Malme-3M = system: Malme-3M
NCI-H226 = system: NCI-H226
NCI-H23 = system: NCI-H23
NCI-H460 = system: NCI-H460
NCI-H522 = system: NCI-H522
NCI/ADR-RES = system: NCI/ADR-RES
OVCAR-3 = system: OVCAR-3
OVCAR-4 = system: OVCAR-4
OVCAR-5 = system: OVCAR-5
OVCAR-8 = system: OVCAR-8
PC-3 = system: PC-3
RPMI-8226 = system: RPMI-8226
SF-268 = system: SF-268
SF-295 = system: SF-295
SF-539 = system: SF-539
SK-MEL-28 = system: SK-MEL-28
SK-MEL-2 = system: SK-MEL-2
SK-MEL-5 = system: SK-MEL-5
SN12C = system: SN12C
SNB-19 = system: SNB-19
SNB-75 = system: SNB-75
SW-620 = system: SW-620
T47D = system: T47D
TK-10 = system: TK-10
U-251 = system: U-251
UACC-257 = system: UACC-257
UACC-62 = system: UACC-62
UO-31 = system: UO-31
K562 = system: K562
RXF 393 = system: RXF 393
SK-OV-3 = system: SK-OV-3

## c1ccc2c(c1)SC1=C(SC(=C3SC4=C(S3)Sc3ccccc3S4)S1)S2
786-0
  GI50: 91 µM (inactive)
A549
  GI50: > 100 µM (inactive)
ACHN
  GI50: > 100 µM (inactive)
BT-549
  GI50: > 100 µM (inactive)
CAKI-1
  GI50: > 100 µM (inactive)
CCRF-CEM
  GI50: > 100 µM (inactive)
COLO 205
  GI50: > 100 µM (inactive)
DU-145
  GI50: > 100 µM (inactive)
EKVX
  GI50: > 100 µM (inactive)
HCC 2998
  GI50: > 100 µM (inactive)
HCT-116
  GI50: > 100 µM (inactive)
HCT-15
  GI50: > 100 µM
HL-60
  GI50: > 100 µM (inactive)
HOP-62
  GI50: 36.9 µM (inactive)
HOP-92
  GI50: > 100 µM (inactive)
HT-29
  GI50: > 100 µM (inactive)
Hs-578T
  GI50: 23.3 µM (inactive)
IGROV-1
  GI50: > 100 µM (inactive)
KM12
  GI50: > 100 µM (inactive)
LOX IMVI
  GI50: > 100 µM (inactive)
M14
  GI50: > 100 µM (inactive)
MCF7
  GI50: > 100 µM (inactive)
MDA-MB-231
  GI50: > 100 µM (inactive)
MDA-MB-435
  GI50: > 100 µM (inactive)
MDA-N
  GI50: > 100 µM (inactive)
MOLT-4
  GI50: > 100 µM (inactive)
Malme-3M
  GI50: > 100 µM (inactive)
NCI-H226
  GI50: > 100 µM (inactive)
NCI-H23
  GI50: > 100 µM (inactive)
NCI-H460
  GI50: > 100 µM (inactive)
NCI-H522
  GI50: > 100 µM (inactive)
NCI/ADR-RES
  GI50: > 100 µM (inactive)
OVCAR-3
  GI50: > 100 µM (inactive)
OVCAR-4
  GI50: > 100 µM (inactive)
OVCAR-5
  GI50: > 100 µM (inactive)
OVCAR-8
  GI50: > 100 µM (inactive)
PC-3
  GI50: > 100 µM (inactive)
RPMI-8226
  GI50: > 100 µM (inactive)
SF-268
  GI50: > 100 µM (inactive)
SF-295
  GI50: > 100 µM (inactive)
SF-539
  GI50: > 100 µM (inactive)
SK-MEL-28
  GI50: > 100 µM (inactive)
SK-MEL-2
  GI50: > 100 µM (inactive)
SK-MEL-5
  GI50: > 100 µM (inactive)
SN12C
  GI50: > 100 µM (inactive)
SNB-19
  GI50: > 100 µM (inactive)
SNB-75
  GI50: 49.4 µM (inactive)
SW-620
  GI50: > 100 µM (inactive)
T47D
  GI50: > 100 µM (inactive)
TK-10
  GI50: > 100 µM (inactive)
U-251
  GI50: > 100 µM (inactive)
UACC-257
  GI50: > 100 µM (inactive)
UACC-62
  GI50: > 100 µM (inactive)
UO-31
  GI50: > 100 µM (inactive)

## Cc1cc2ncn(C3CCCCO3)c2cc1C (stereo not given)
786-0
  GI50: > 100 µM (inactive)
A549
  GI50: > 100 µM (inactive)
ACHN
  GI50: > 100 µM (inactive)
BT-549
  GI50: > 100 µM (inactive)
CAKI-1
  GI50: > 100 µM (inactive)
CCRF-CEM
  GI50: > 100 µM (inactive)
COLO 205
  GI50: > 100 µM (inactive)
DU-145
  GI50: > 100 µM (inactive)
EKVX
  GI50: > 100 µM (inactive)
HCC 2998
  GI50: > 100 µM (inactive)
HCT-116
  GI50: > 100 µM (inactive)
HCT-15
  GI50: > 100 µM
HL-60
  GI50: > 100 µM (inactive)
HOP-62
  GI50: > 100 µM (inactive)
HOP-92
  GI50: > 100 µM (inactive)
HT-29
  GI50: > 100 µM (inactive)
Hs-578T
  GI50: > 100 µM (inactive)
IGROV-1
  GI50: > 100 µM (inactive)
K562
  GI50: > 100 µM (inactive)
KM12
  GI50: 35.5 µM (inactive)
LOX IMVI
  GI50: 62.5 µM (inactive)
M14
  GI50: > 100 µM (inactive)
MCF7
  GI50: > 100 µM (inactive)
MDA-MB-231
  GI50: > 100 µM (inactive)
MDA-MB-435
  GI50: > 100 µM (inactive)
MDA-N
  GI50: > 100 µM (inactive)
MOLT-4
  GI50: > 100 µM (inactive)
Malme-3M
  GI50: > 100 µM (inactive)
NCI-H226
  GI50: > 100 µM (inactive)
NCI-H23
  GI50: 50.2 µM (inactive)
NCI-H522
  GI50: > 100 µM (inactive)
NCI/ADR-RES
  GI50: > 100 µM (inactive)
OVCAR-3
  GI50: > 100 µM (inactive)
OVCAR-4
  GI50: > 100 µM (inactive)
OVCAR-5
  GI50: > 100 µM (inactive)
OVCAR-8
  GI50: > 100 µM (inactive)
PC-3
  GI50: > 100 µM (inactive)
RPMI-8226
  GI50: > 100 µM (inactive)
RXF 393
  GI50: > 100 µM (inactive)
SF-268
  GI50: > 100 µM (inactive)
SF-295
  GI50: > 100 µM (inactive)
SF-539
  GI50: > 100 µM (inactive)
SK-MEL-28
  GI50: > 100 µM (inactive)
SK-MEL-2
  GI50: > 100 µM (inactive)
SK-MEL-5
  GI50: > 100 µM (inactive)
SK-OV-3
  GI50: > 100 µM (inactive)
SN12C
  GI50: > 100 µM (inactive)
SNB-19
  GI50: > 100 µM (inactive)
SNB-75
  GI50: > 100 µM (inactive)
SW-620
  GI50: > 100 µM (inactive)
T47D
  GI50: > 100 µM (inactive)
TK-10
  GI50: > 100 µM (inactive)
U-251
  GI50: > 100 µM (inactive)
UACC-257
  GI50: > 100 µM (inactive)
UACC-62
  GI50: > 100 µM (inactive)
UO-31
  GI50: 20.2 µM (inactive)
